Laboratory results from patent publication US9987294B2, “Mitochondria-targeted anti-tumor agents” (University of Massachusetts, priority 2007, dated 2018).
“Also recorded” adds a separate entry of the source. Where a SMILES comes first, the peptide text is derived from it. [ ]: non-standard residue; d: D form.

Tests used:
[1] = test system: HeLa cells; test: Cell viability by MTT, HeLa cells; conditions: 50 μM; cultures not treated with CsA
[2] = test system: mitochondria isolated from a p53−/− mouse lymphoma specimen; test: Cytochrome c release from isolated mitochondria (Western blotting); type: biochemical
Protocol: (§1) Tumor cell types were treated with controls or the various Hsp90 antagonists, and cytosolic extracts were harvested at increasing time intervals between 5-30 minutes and analyzed by Western blotting. For experiments in a cell-free system, purified mitochondria (20 μg) were suspended in 500 μl of SB buffer (0.2 M sucrose, 10 mM Tris-MOPS, pH 7.4, 5 mM succinate, 1 mM sodium phosphate, 10 μM EGTA-Tris, and 2 μM rotenone). Samples were treated with controls or the various Hsp90 antagonists for 20 minutes at 22° C. At the end of each incubation reaction, mitochondria and supernatants were separated by centrifugation at 6,000×g for 10 minutes, and analyzed by Western blotting.

[3] = test system: primary human sarcoma sample mitochondria; test: as above; type: biochemical
Protocol: as §1

[4] = test system: normal mouse liver mitochondria; test: Cytochrome c and Smac content of isolated mitochondria (Western blotting); type: biochemical
Protocol: as §1

[5] = test system: mitochondria isolated from Raji lymphoblastoid cells; test: Cytochrome c release from isolated mitochondria (Western blotting); type: biochemical, human
Protocol: as §1

[6] = test system: mitochondria purified from B-lymphoblastoid Raji cells; test: Mitochondrial membrane potential of TMRM-loaded isolated mitochondria; type: biochemical, human
Protocol: (§2) Raji cells were treated with Shepherdin or control scrambled peptidomimetic (100 μM) or 17-AAG (5 μM), loaded with the mitochondrial membrane potential-sensitive fluorescent dye JC-1, and analyzed for changes in green/red fluorescence ratio by flow cytometry. For experiments in a cell-free system, purified mitochondria isolated from primary normal cells, various tumor cells types, or normal mouse organs were suspended in SB buffer. […] For these experiments, TMRM-loaded mitochondria in SB buffer were allowed to reach stable fluorescence, which was set as fully polarized state (maximum membrane potential). The fluorescence intensity after treatment with 2 mM CaCl2 was set as minimum membrane potential (fully depolarized state). Changes in fluorescence intensity after each treatment were plotted as a ratio between maximum and minimum membrane potential.

[7] = test system: purified HeLa cell mitochondria; test: as above; type: biochemical, human; conditions: TMRM-loaded HeLa cell (tumor) mitochondria
Protocol: as §2

[8] = test system: Raji cells; test: Mitochondrial membrane potential in JC-1-loaded cells (flow cytometry); type: cell-based, human; conditions: within five minutes of addition
Protocol: as §2

[9] = test system: tumor cells; test: Cell viability by MTT, tumor cell types; type: cell-based; conditions: 1 hour exposure; MTT
[10] = test system: normal human fibroblast cell types (WS-1, HGF, HFF); test: Cell viability by MTT, normal human fibroblast cell types
Protocol: Changes in protein expression in the various experiments of siRNA targeting were assessed by Western blotting. For analysis of TRAP-1-directed cytoprotection, primary nontransformed human fibroblasts HFF and WS-1 were transfected with control pcDNA3 or TRAP-1 cDNA by lipofectamine for 24 hours, exposed to increasing concentrations (0-1 μM) of the cell death stimulus staurosporine (STS), and analyzed for cell viability after additional 24 hours incubation by MTT. For analysis of apoptosis, p53+/+ or p53−/−HCT116 cells were treated with control or ANT-GA (100 μM), and analyzed for DEVDase activity (CaspaTag) and propidium iodide staining by simultaneous multiparametric flow cytometry, as described (Dohi et al., J. Clin. Invest. 114(8):1117-27, (2004); Plescia et al., Cancer Cell, 7:457-468, (2005)).

[11] = test system: mitochondria isolated from WS-1 normal human fibroblasts; test: Mitochondrial membrane potential of TMRM-loaded isolated mitochondria; type: biochemical
Protocol: as §2
Alternatively, H460 cells were labeled with the fluorescent dye JC-1 (Molecular Probes), and analyzed for changes in red/green (F1-2/F1-1) fluorescence ratio after treatment with the various agents, by multiparametric flow cytometry. Cytochrome c content in pellets or supernatants of drug-treated isolated mitochondria was determined by Western blotting.

[12] = test system: HeLa cells; test: Cytochrome c release into the cytosol of treated tumor cells (Western blotting); type: cell-based, human
[13] = test system: mitochondria isolated from normal NIH3T3 cells; test: Mitochondrial membrane potential of TMRM-loaded isolated mitochondria; type: biochemical
Protocol: as §2, with “potential. In some experiments, increasing concentrations (10-100 μg) of TMRM-loaded mitochondria isolated from HeLa or MCF-7 cells were diluted in 3 ml of SB buffer, normalized to a total protein concentration of 500 μg with BSA, and analyzed for changes in membrane potential in response to control or the various Hsp90 antagonists.” for “potential.”

[14] = test system: HeLa cells; test: Time-lapse videomicroscopy of cell morphology; type: cell-based, human; conditions: within minutes
Protocol: For time lapse videomicroscopy, HeLa cells were maintained in 35 mm glass-bottom tissue-culture dishes (Mat-tek). Prior to imaging, cells were incubated with 400 nM CM-H2XRos (M7513, Molecular Probes) under growth conditions for 15 minutes. After washes, fresh culture medium was added, and cells were imaged in an environmental chamber (PDMI-2; Harvard Apparatus) in complete medium with CO2 exchange (0.5 liters/minute) at 37° C. Cells were imaged every 1 minute using a 100× phase contrast lens with a green interference filter on an inverted microscope (Olympus IX-70). Images were captured on a CoolSnap HQ CCD camera (Roper Scientific) and concatenated using Metamorph software (Universal Imaging Corp.). Cells were imaged in the absence of any reagent for the first 10 minutes of the time lapse, at which point Shepherdin or cell permeable scrambled peptidomimetic was added dropwise in between acquisitions. Phase-contrast images of mitochondria were verified by the presence of CM-H2XRos labeling.

[15] = test system: Ras-transformed NIH3T3 mitochondria; test: Mitochondrial membrane potential of TMRM-loaded isolated mitochondria; type: biochemical
Protocol: as §2

[16] = test system: normal mouse brain mitochondria; test: as above; type: biochemical
Protocol: as §2

[17] = test system: normal mouse liver mitochondria; test: as above; type: biochemical
Protocol: as §2

In the case of CSCC[C@@H](NC(=O)[C@@H](CCCCN)NC(=O)[C@@H](Cc1c[nH]c2ccccc12)NC(=O)[C@@H](CCCCN)NC(=O)[C@H](N)CCCCN)C(=O)N[C@H](CCCNC(=N)N)C(=O)N[C@H](CCCNC(=N)N)C(=O)N[C@H](CC(N)=O)C(=O)N[C@H](CCC(N)=O)C(=O)N[C@H](Cc1ccccc1)C(=O)N[C@H](Cc1c[nH]c2ccccc12)C(=O)N[C@@H](C(=O)N[C@H](CCCCN)C(=O)N[C@@H](C(=O)N[C@H](CCC(N)=O)C(=O)N[C@H](CCCNC(=N)N)C(=O)N[C@H](CC(C)C)C(=O)N[C@H](Cc1ccccc1)C(=O)N[C@H](C)C(=O)N[C@H](CS)C(=O)NCC(=O)N[C@H](CO)C(=O)N[C@H](CO)C(=O)N[C@H](Cc1c[nH]cn1)C(=O)N[C@H](CCCCN)C(N)=O)C(C)C)C(C)C [Sheph-ANT] (H-[dK][dK][dW][dK][dM][dR][dR][dN][dQ][dF][dW][dV][dK][dV][dQ][dR][dL][dF][dA][dC]G[dS][dS][dH][dK]-NH2; N-terminus and C-terminus assumed), the cell killing [1] is reported as “complete cell killing”, the “cytochrome c release from mitochondria” value [2] is reported as “induced cytochrome c release” and the “release of cytochrome c from mitochondria” value [3] is reported as “concentration-dependent release of cytochrome c; also recorded: increases Cyt c release into the supernatant in a dose-dependent manner”. The “cytochrome c or Smac levels of mitochondria” value [4] was “had no effect on cytochrome c or Smac levels”, the “release of cytochrome c from mitochondria” value [5] was “concentration-dependent release of cytochrome c; also recorded: reduces mitochondrial Cyt c in a dose-dependent manner” and the “membrane potential of mitochondria” value [6] was “readily depolarized mitochondria”. For the same compound, the mitochondrial membrane potential [7] was “caused sudden loss of mitochondrial membrane potential; also recorded: induces a change in mitochondrial membrane potential”, the “mitochondrial membrane potential in tumor cells” value [8] was “induced loss of mitochondrial membrane potential in tumor cells” and the “tumor cell viability / killing” value [9] was “sufficient to kill disparate tumor cell types in a concentration-dependent manner; also recorded: triggered selective tumor cell death”. For the same compound, the “viability of normal human fibroblast cell types” value [10] was “did not affect the viability of various normal human fibroblast cell types”, the “membrane potential of mitochondria” value ([11]; WS-1 normal human fibroblasts) was “did not cause loss of membrane potential” and the “membrane potential of mitochondria” value ([11]; glucose-deprived WS-1, compared with Scram-ANT) was “did not significantly affect membrane potential”. The “mitochondrial membrane potential of normal cells” value ([11]; summary for normal cells (FIGS. 4A, C, E, G)) was “did not affect mitochondrial membrane potential of normal cells over background levels”, the “cytochrome c release into the cytosol” value [12] was “discharge of mitochondrial cytochrome c in the cytosol” and the “membrane potential of mitochondria” value [13] was “had no effect on mitochondria isolated from normal NIH3T3 cells”. The “morphological features of apoptosis” value [14] was “exhibited within minutes morphological features of apoptosis”, the “membrane potential of mitochondria” value [15] was “readily depolarized Ras-transformed NIH3T3 mitochondria” and the “membrane potential of mitochondria” value [16] was “did not affect membrane potential”. The “membrane potential of mitochondria” value [17] was “did not affect membrane potential; also recorded: had no effect on normal liver mitochondria, with or without CsA”.
